This is an account of results in BindingDB's records for doi:10.7270/Q2Z036M0 (Broad Institute, 2010).

This assay has as its target T1, S-ribosylhomocysteine lyase (Vibrio harveyi, UniProt B0LUE4).
T1 sequence (B0LUE4 whole entry): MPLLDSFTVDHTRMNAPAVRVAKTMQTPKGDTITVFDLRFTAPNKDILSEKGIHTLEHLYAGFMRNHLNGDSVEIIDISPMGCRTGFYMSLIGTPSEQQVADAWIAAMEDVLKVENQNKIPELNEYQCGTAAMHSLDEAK
In words: modulation of V. harveyi AI-2 signalling – luminescence, dose retest, Vibrio harveyi, confirmation (AID 2724).
The compound `C=Cn1c(C(=O)O)ccc1-c1ccc(CC)cc1` came in with an EC50 of 2070 nM.
Next, `COc1cc(NC(=O)CN2C(=O)NC(c3ccccc3)(c3ccccc3)C2=O)cc(OC)c1` [MLS001176525]: 1570 nM; `CCc1ccc(S(=O)(=O)Nc2ccc(Br)cn2)cc1` [MLS001211346]: 3640 nM.
The value for `CCCc1ccc(S(=O)(=O)N(C)S(=O)(=O)c2ccc(F)cc2)cc1` [N-(4-fluorophenyl)sulfonyl-N-methyl-4-propylbenzenesulfonamide] was 1620 nM; that for `CN(C)S(=O)(=O)c1ccc(NC(=S)NC(=O)Cc2ccccc2)cc1` [N-[[4-(dimethylsulfamoyl)phenyl]carbamothioyl]-2-phenyl-ethanamide] was above 160000 nM.
Regarding `Cc1cccc(NS(=O)(=O)c2ccc(Oc3ccccc3)cc2)n1` [SMR000071466], the response was half-maximal at 2560 nM (EC50).
Turning to `Cn1cnc(S(=O)(=O)Nc2ccc(OC(F)(F)F)cc2)c1` [SMR000314513], a half-maximal response (EC50) required 4390 nM.

Usually EC50 stands for the concentration giving half of the maximal effect.
